Square brackets hold non-standard residues; d marks the D form. Peptide text beside a SMILES is read from it.
Assay: Peptide stability in 50% human serum (RP-HPLC time course)
Type: in vitro ADME
Settings: 50% aqueous human serum, 37 °C, time points 0, 30 (35), 120 min, RP-HPLC peak area at 220 nm, triplicate
Method: D-amino acids are more resistant to protease degradation. In order to verify the effect of D-amino acid replacement on QK stability in serum, we performed a time-course analysis. Peptides were incubated with 50% diluted human serum and analyzed by RP-HPLC at three different times (0′, 35′ and 120′). The area of the chromatographic peak corresponding to the entire peptide was determined (Figure 6). Overall, peptide QK presents fairly good stability in 50% serum, as almost the 50% is still present after […] of incubation.
Figure 6 Analysis of peptide stability in 50% human serum. […] Data are reported as means of a triplicate experiment.
Briefly, 20 µL of peptide (10 mg/mL stock solution in H2O) were added to 200 µL of 50% aqueous solution of human serum (Sigma-Aldrich) (previously centrifuged at 10,000 rpm for 10 min at 4 °C) and the mixture was incubated at 37 °C. At each time point (0, 30, 120 min), an aliquot of 6 µL was diluted in a ten times volume of H2O and analyzed by RP-HPLC on an Atlantis C18-column (Waters, 5 µm, 4.6 mm × 150 mm) using a linear aqueous acetonitrile gradient containing TFA (0.1%, v/v). Initial condition 5% B, 5−5% B in 5 min, 5−40% B in 27 min, 40−100% B in 5 min, and flow rate 1 mL/min (B = acetonitrile 0.1% TFA). Peptides were detected by recording the absorbance at 220 nm and quantified by their peak areas relative to the initial peak areas (0 min). […]

effect of the N-terminal D-amino acids on stability in human serum (versus QK): unaffected
SMILES: CC[C@H](C)[C@H](NC(=O)CNC(=O)[C@H](CCCCN)NC(=O)[C@H](Cc1ccc(O)cc1)NC(=O)[C@H](CCCCN)NC(=O)[C@H](CC(C)C)NC(=O)[C@H](CCC(N)=O)NC(=O)[C@H](Cc1ccc(O)cc1)NC(=O)[C@H](CC(C)C)NC(=O)[C@H](CCC(=O)O)NC(=O)[C@H](CCC(N)=O)NC(=O)[C@H](Cc1c[nH]c2ccccc12)NC(=O)[C@H](NC(=O)[C@@H](CC(C)C)NC(=O)[C@@H](CCCCN)NC(C)=O)[C@H](C)O)C(N)=O [D-QK, Ac-^DLys-^DLeu-^DThr-Trp-Gln-Glu-Leu-Tyr-Gln-Leu-Lys-Tyr-Lys-Gly-Ile-NH2] (Ac-[dK][dL][dT]WQELYQLKYKGI-NH2)

From publication PMC9607104, “Switching the N-Capping Region from all-L to all-D Amino Acids in a VEGF Mimetic Helical Peptide” (Molecules, 2022)
